From patent US20150291598A1 (NOVARTIS AG, priority 2012, published 2015)
Like-named read-outs stand apart in the source and are kept apart here.

How the values were obtained:
[1] = tested on: P. falciparum (NF54 or 3D7 strain); assay: Assay for P. falciparum proliferation in infected human blood cells (SYBR Green); type: cell-based, Plasmodium falciparum; details: Plasmodium falciparum, Erythrocyte
Summary of the method: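 NF54 or 3D7 parasites in O+ human erythrocytes at 2.5% hematocrit and 0.3% parasitemia final, exposed to compounds 72 h at 37 °C under 93% N2/4% CO2/3% O2.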

P. yoelii Sporozoite = assay: P. yoelii sporozoite invasion assay in HepG2-A16-CD81EGFP liver cells (immunofluorescence quantification of EEFs); type: cell-based; details: Plasmodium yoelii
Excerpt: Compounds of the invention can be assayed to measure their capacity to inhibit proliferation of parasites in liver cells. The proliferation is quantified by determine the number of infected cells by immunofluorescence.
Due to the difficulty of successfully infecting immortalized human liver cell lines with the human malaria sporozoites (liver-stage parasite), rodent malaria sporozoites from Plasmodium yoelii (17XNL) and P. berghei (ANKA) are the preferred surrogate. Sporozoites are obtained from Anopheles stephensi mosquitoes supplied by the New York University Insectary, which ships the malaria-infected mosquitoes 10-13 days following the ingestion of an infective blood meal.
A transgenic HepG2 cell line expressing the tetraspanin CD81 receptor (HepG2-A16-CD81^EGFP) is used to increase the infectivity rate of rodent-malaria sporozoites into human cells. HepG2-A16-CD81^EGFP cells are stably transformed to express a GFP-CD81 fusion protein. A continuous in vitro culture of this line was maintained at 37° C. in 4% CO2 in complete media (CM) which contains: DMEM (Invitrogen, Carlsbad, USA) supplemented with 10% FCS, 0.29 mg/ml glutamine, 100 units penicillin and 100 μg/ml streptomycin (SigmaAldrich, USA).
P. yoelii Sporozoite Invasion Assay
These plates are incubated at 37° C. with 4% CO2 overnight. Two hours prior to infection, 50 nl of compound dissolved in DMSO (0.1% final DMSO concentration per well) were transferred with a PinTool (GNF Systems) into the assay plates (10 μM final concentration). A 1:3 serial dilution of atovaquone (10 μM at the highest final concentration) and wells treated only with DMSO were used as positive and negative controls, respectively.
Freshly dissected salivary glands from infected mosquitoes were homogenized in a glass tissue grinder, filtered twice through Nylon cell strainers (40 μm pore size, BD Falcon) and counted using a hemocytometer. The assay plate with HepG2-A16-CD81^EGFP cells and compound were then infected with 8×10^3 sporozoites per well and the plates are subjected to a centrifugal force of 650×g to pellet the sporozoites onto the liver cell monolayer. The assay plate is incubated at 37° C. for 2 hours to permit sporozoite invasion, then the media is aspirated from the media plate, and replaced with 50 μl CM (containing a 5× concentration of penicillin/streptomycin; 500 units penicillin and 0.5 mg streptomycin per ml) per well. 50 nl of compound is re-introduced by PinTool and the assay plate incubated for 48 hours at 37° C. before quantification of infected cells by immunofluorescence.
Atovaquone and uninfected wells were used as controls on each plate. Two replicate plates are tested for each assay.
Stained EEFs were then quantified using the Opera Confocal High Content Screening System (PerkinElmer, Waltham, USA). Images were collected using a 20× objective lens (20×/0.45 NA, LWD Plan Fluor, Olympus) at a binning of 2, using a 365 nm Xeon arc lamp illumination to detect the Hoechst-labeled nuclei and 635 nm laser line to excite DyLight649-labeled parasites. The image resolution yielded was approximately 0.66 μm/pixel (˜0.43 μm 2/pixel). All images were analyzed using a custom Acapella™ (PerkinElmer) script parametrized for this assay. In brief, images from fields inside the well were first discarded as out-of focus when the intensity in the nuclear channel was too low. Then, HepG2-A16-CD81^EGFP cells were counted by detecting the nuclei labeled with Hoechst using the nuclei detection libraries available with Acapella™. Parasites were later segmented using the αPyHSP70 immuno-labeling signal, using a custom script library. Once the objects were segmented from the picture, morphological-based (e.g. size, roundness, etc) and intensity-based features were measured for each object detected in the image (i.e. nuclei and parasites). Infection ratio was set as the ratio between parasite number and number of nuclei counted in images considered as “in-focus”.

[2] = 72 h, NF54 or 3D7 infected human erythrocytes, 72 hours, read-out: EC50 (nM), inhibitory efficacy in delaying P. falciparum proliferation in infected human blood cells
[3] = HepG2-A16-CD81EGFP cells, 48 hours, read-out: EC50 (nM), inhibitory efficacy in delaying the proliferation of P. yoelii sporozoite in infected liver cells
[4] = 72 h, read-out: EC50 (nM), inhibitory efficacy in delaying P. falciparum proliferation in infected human blood cells
[5] = read-out: EC50, P. yoelii Sporozoite Invasion Assay
[6] = infected human red blood cells, read-out: EC50, P. falciparum Proliferation Assay

Row | EC50 (P. yoelii Sporozoite; 48 h, read-out: EC50 (nM), inhibitory efficacy in delaying the proliferation of P. yoelii sporozoite in infected liver cells) | SMILES | EC50 [1, 2] | EC50 (P. yoelii Sporozoite; [3]) | EC50 [1, 4] | EC50 (P. yoelii Sporozoite; [5]) | EC50 [1, 6]
1 | – | CN(C(=O)c1cn2c(-c3ccc(C(N)=O)cc3)cnc2cn1)c1ccc(F)cc1 [Compound 11, 3-(4-carbamoylphenyl)-N-(4-fluorophenyl)-N-methylimidazo[1,2-a]pyrazine-6-carboxamide] | 74 nM | 56 nM | – | – | –
2 | – | CNC(=O)c1ccc(-c2cnc3cnc(C(=O)N(C)c4ccc(C#N)cc4)cn23)cc1 [Compound 38, N-(4-cyanophenyl)-N-methyl-3-[4-(methylcarbamoyl)phenyl]imidazo[1,2-a]pyrazine-6-carboxamide] | 131 nM | 290 nM | – | – | –
3 | – | CN(C(=O)c1cn2c(-c3ccc(C(F)(F)F)cc3)cnc2cn1)c1ccc(C#N)cc1 [Compound 76, N-(4-cyanophenyl)-N-methyl-3-[4-(trifluoromethyl)phenyl]imidazo[1,2-a]pyrazine-6-carboxamide] | – | 263 nM | 35 nM | – | –
4 | – | CN(Cc1cn2c(-c3ccc(C(F)(F)F)cc3)cnc2cn1)c1ccc(C#N)cc1 [Compound 213, 4-[methyl({3-[4-(trifluoromethyl)phenyl]imidazo[1,2-a]pyrazin-6-yl}methyl)amino]benzonitrile] | 41 nM | 14 nM | – | < 50 nM | –
5 | – | CN(Cc1cn2c(-c3ccc(C(N)=O)cc3)cnc2cn1)c1ccc(F)cc1 [Compound 222, 4-(6-{[(4-fluorophenyl)(methyl)amino]methyl}imidazo[1,2-a]pyrazin-3-yl)benzamide] | 30 nM | 7 nM | – | < 50 nM | < 50 nM
6 | – | CN(Cc1cn2c(-c3ccc(C(N)=O)cc3)cnc2cn1)c1ccc(C#N)cc1 [Compound 223, 4-(6-{[(4-cyanophenyl)(methyl)amino]methyl}imidazo[1,2-a]pyrazin-3-yl)benzamide] | 25 nM | 11 nM | – | < 50 nM | –
7 | 32 nM | CNC(=O)c1ccc(-c2cnc3cnc(C(=O)N(C)c4ccc(Cl)cc4)cn23)cc1 [Compound 228, N-(4-chlorophenyl)-N-methyl-3-[4-(methylcarbamoyl)phenyl]imidazo[1,2-a]pyrazine-6-carboxamide] | – | – | 58 nM | < 50 nM | –
8 | – | CC(=O)Nc1ccc(-c2cnc3cnc(C(=O)N(C)c4ccc(C#N)cc4)cn23)cn1 [Compound 236, N-(4-cyanophenyl)-3-(6-acetamidopyridin-3-yl)-N-methylimidazo[1,2-a]pyrazine-6-carboxamide] | 127 nM | 189 nM | – | – | –
9 | – | CN(Cc1cn2c(-c3ccc(C(N)=O)cc3)cnc2cn1)c1ccc(Cl)cc1 [Compound 477, 4-(6-{[(4-chlorophenyl)(methyl)amino]methyl}imidazo[1,2-a]pyrazin-3-yl)benzamide] | 9 nM | 11 nM | – | < 50 nM | < 50 nM
10 | – | COC(=O)Nc1ccc(-c2cnc3cnc(C(=O)N(C)c4ccc(C#N)cc4)cn23)cc1 [Compound 482, methyl N-(4-{6-[(4-cyanophenyl)(methyl)carbamoyl]imidazo[1,2-a]pyrazin-3-yl}phenyl)carbamate] | 37 nM | 64 nM | – | – | –
11 | – | CN(C(=O)c1cn2c(-c3ccc(C(N)=O)cc3)cnc2cn1)c1ccc(Cl)cc1 [Compound 486, 3-(4-carbamoylphenyl)-N-(4-chlorophenyl)-N-methylimidazo[1,2-a]pyrazine-6-carboxamide] | 42 nM | 120 nM | – | – | < 50 nM
12 | – | CN(C(=O)c1cn2c(-c3ccc4c(cnn4C)c3)cnc2cn1)c1ccc(C#N)cc1 [Compound 487, N-(4-cyanophenyl)-N-methyl-3-(1-methyl-1H-indazol-5-yl)imidazo[1,2-a]pyrazine-6-carboxamide] | 96 nM | 2940 nM | – | – | –
13 | – | Cc1ccc(N(C)C(=O)c2cn3c(-c4ccc(C(F)(F)F)cc4)cnc3cn2)nc1 [Compound 491, N-methyl-N-(5-methylpyridin-2-yl)-3-[4-(trifluoromethyl)phenyl]imidazo[1,2-a]pyrazine-6-carboxamide] | 199 nM | 1110 nM | – | – | –
14 | – | CN(C(=O)c1cn2c(-c3ccc(C(F)(F)F)cc3)cnc2cn1)c1ccc(C#N)c(Cl)c1 [Compound 502, N-(3-chloro-4-cyanophenyl)-N-methyl-3-[4-(trifluoromethyl)phenyl]imidazo[1,2-a]pyrazine-6-carboxamide] | 2000 nM | – | – | – | –
15 | – | COc1cc(C#N)ccc1N(C)C(=O)c1cn2c(-c3ccc(C(F)(F)F)cc3)cnc2cn1 [Compound 503, N-(4-cyano-2-methoxyphenyl)-N-methyl-3-[4-(trifluoromethyl)phenyl]imidazo[1,2-a]pyrazine-6-carboxamide] | 60 nM | – | – | – | –
